IC50 data for 12 molecules are collected here from patent US20260297081A1, “COMPOUNDS AND METHODS OF TREATING CANCERS” (Cullgen Inc., priority 2023, published 2026).

In the experiment the test system is MCF7 cells. Briefly: Anti-proliferation (viability) of MCF7 cells (Table 7, FIG. 2B). The format is cell-based. To be noted: Homo sapiens, MCF7, MCF7 cells, 3-6 days, 10-point serial dilution; read-out: GI IC50 in MCF-7.

Where only a bound is given, the exact number is not on record here.

On to `CC(=O)c1c(C)c2cnc(Nc3ccc(N4CCC(N5CCC(C(=O)N6CCC(Nc7nc(NC(C)C)ccc7C(=O)Nc7ccc(N(C)C)nn7)C6)C5)CC4)cn3)nc2n(C2CCCC2)c1=O` (stereo not drawn) [CPD-395, 2-((1-(1-(1-(6-((6-acetyl-8-cyclopentyl-5-methyl-7-oxo-7,8-dihydropyrido[2,3-d]pyrimidin-2-yl)amino)pyridin-3-yl)piperidin-4-yl)pyrrolidine-3-carbonyl)pyrrolidin-3-yl)amino)-N-(6-(dimethylamino)pyridazin-3-yl)-6-(isopropylamino)nicotinamide], for which the IC50 is > 100 nM.
Under `CC(=O)c1c(C)c2cnc(Nc3ccc(N4CCC(N5CCC(C(=O)N6CCC(Nc7nc(NC(C)C)ccc7C(=O)Nc7ccc(N(C)C)nn7)CC6)C5)CC4)cn3)nc2n(C2CCCC2)c1=O` (stereo not drawn) [CPD-396, 2-((1-(1-(1-(6-((6-acetyl-8-cyclopentyl-5-methyl-7-oxo-7,8-dihydropyrido[2,3-d]pyrimidin-2-yl)amino)pyridin-3-yl)piperidin-4-yl)pyrrolidine-3-carbonyl)piperidin-4-yl)amino)-N-(6-(dimethylamino)pyridazin-3-yl)-6-(isopropylamino)nicotinamide] stands > 100 nM; under `CC(=O)c1c(C)c2cnc(Nc3ccc(N4CCC(N5CCC(C(=O)NC6CC7(C6)CC(Nc6nc(NC(C)C)ccc6C(=O)Nc6ccc(N(C)C)nn6)C7)C5)CC4)cn3)nc2n(C2CCCC2)c1=O` (stereo not drawn) [CPD-397, 2-((6-(1-(1-(6-((6-acetyl-8-cyclopentyl-5-methyl-7-oxo-7,8-dihydropyrido[2,3-d]pyrimidin-2-yl)amino)pyridin-3-yl)piperidin-4-yl)pyrrolidine-3-carboxamido)spiro[3.3]heptan-2-yl)amino)-N-(6-(dimethylamino)pyridazin-3-yl)-6-(isopropylamino)nicotinamide], < 50 nM; under `CC(=O)c1c(C)c2cnc(Nc3ccc(N4CCC(N5CCC(C(=O)N6CC7(CC(Nc8nc(NC(C)C)ccc8C(=O)Nc8ccc(N(C)C)nn8)C7)C6)C5)CC4)cn3)nc2n(C2CCCC2)c1=O` (stereo not drawn) [CPD-398, 2-((2-(1-(1-(6-((6-acetyl-8-cyclopentyl-5-methyl-7-oxo-7,8-dihydropyrido[2,3-d]pyrimidin-2-yl)amino)pyridin-3-yl)piperidin-4-yl)pyrrolidine-3-carbonyl)-2-azaspiro[3.3]heptan-6-yl)amino)-N-(6-(dimethylamino)pyridazin-3-yl)-6-(isopropylamino)nicotinamide], 50 to 100 nM.
With `CC(=O)c1c(C)c2cnc(Nc3ccc(N4CCN(C5CCN(C(=O)C6CC7(CC(Nc8nc(NC(C)C)ccc8C(=O)Nc8ccc(N(C)C)nn8)C7)C6)C5)CC4)cn3)nc2n(C2CCCC2)c1=O` (stereo not drawn) [CPD-400, 2-((6-(3-(4-(6-((6-acetyl-8-cyclopentyl-5-methyl-7-oxo-7,8-dihydropyrido[2,3-d]pyrimidin-2-yl)amino)pyridin-3-yl)piperazin-1-yl)pyrrolidine-1-carbonyl)spiro[3.3]heptan-2-yl)amino)-N-(6-(dimethylamino)pyridazin-3-yl)-6-(isopropylamino)nicotinamide], the IC50 was 50 to 100 nM.
Under `CC(=O)c1c(C)c2cnc(Nc3ccc(N4CCN(C5CN(C(=O)C6CC7(CC(Nc8nc(NC(C)C)ccc8C(=O)Nc8ccc(N(C)C)nn8)C7)C6)C5)CC4)cn3)nc2n(C2CCCC2)c1=O` (stereo not drawn) [CPD-401, 2-((6-(3-(4-(6-((6-acetyl-8-cyclopentyl-5-methyl-7-oxo-7,8-dihydropyrido[2,3-d]pyrimidin-2-yl)amino)pyridin-3-yl)piperazin-1-yl)azetidine-1-carbonyl)spiro[3.3]heptan-2-yl)amino)-N-(6-(dimethylamino)pyridazin-3-yl)-6-(isopropylamino)nicotinamide] stands > 100 nM.
The same measure for `CC(=O)c1c(C)c2cnc(Nc3ccc(N4CCN(C5CCN(C(=O)[C@H]6CC[C@@H](Nc7nc(NC(C)C)ccc7C(=O)Nc7ccc(N(C)C)nn7)C6)C5)CC4)cn3)nc2n(C2CCCC2)c1=O` (stereo partly drawn) [CPD-403, 2-(((1R,3S)-3-(3-(4-(6-((6-acetyl-8-cyclopentyl-5-methyl-7-oxo-7,8-dihydropyrido[2,3-d]pyrimidin-2-yl)amino)pyridin-3-yl)piperazin-1-yl)pyrrolidine-1-carbonyl)cyclopentyl)amino)-N-(6-(dimethylamino)pyridazin-3-yl)-6-(isopropylamino)nicotinamide]: 50 to 100 nM.
Under `CC(=O)c1c(C)c2cnc(N(C)c3ccc(N4CCN(CCC(=O)N5CC6(CC(Nc7nc(NC(C)C)ccc7C(=O)Nc7cc(C)n(C)n7)C6)C5)CC4)cn3)nc2n(C2CCCC2)c1=O` [CPD-404, 2-((2-(3-(4-(6-((6-acetyl-8-cyclopentyl-5-methyl-7-oxo-7,8-dihydropyrido[2,3-d]pyrimidin-2-yl)(methyl)amino)pyridin-3-yl)piperazin-1-yl)propanoyl)-2-azaspiro[3.3]heptan-6-yl)amino)-N-(1,5-dimethyl-1H-pyrazol-3-yl)-6-(isopropylamino)nicotinamide] stands > 100 nM.
`[2H]C([2H])([2H])Nc1ccc(C(=O)Nc2cn(C)c(C3CC3)n2)c(NC2CC3(CC(NC(=O)C(C)N4CCN(c5ccc(Nc6ncc7c(C)c(C(C)=O)c(=O)n(C8CCCC8)c7n6)nc5)CC4)C3)C2)n1` (stereo not drawn) [CPD-405, 2-((6-(2-(4-(6-((6-acetyl-8-cyclopentyl-5-methyl-7-oxo-7,8-dihydropyrido[2,3-d]pyrimidin-2-yl)amino)pyridin-3-yl)piperazin-1-yl)propanamido)spiro[3.3]heptan-2-yl)amino)-N-(2-cyclopropyl-1-methyl-1H-imidazol-4-yl)-6-((methyl-d3)amino)nicotinamide]: the half-maximal inhibitory concentration (IC50) was > 100 nM.
Regarding `CC(=O)c1c(C)c2cnc(Nc3ccc(N4CCN(C(C)C(=O)NC5CC6(C5)CC(Nc5nc(NC(C)C)ccc5C(=O)Nc5ccc(N(C)C)nn5)C6)CC4)cn3)nc2n(C2CCCC2)c1=O` (stereo not drawn) [CPD-406, 2-((6-(2-(4-(6-((6-acetyl-8-cyclopentyl-5-methyl-7-oxo-7,8-dihydropyrido[2,3-d]pyrimidin-2-yl)amino)pyridin-3-yl)piperazin-1-yl)propanamido)spiro[3.3]heptan-2-yl)amino)-N-(6-(dimethylamino)pyridazin-3-yl)-6-(isopropylamino)nicotinamide], the IC50 was < 50 nM.
The same measure for `CC(=O)c1c(C)c2cnc(Nc3ccc(N4CCC5(CC4)CC5C(=O)N4CCC(Nc5nc(NC(C)C)ccc5C(=O)Nc5cc(C)n(C)n5)CC4)cn3)nc2n(C2CCCC2)c1=O` (stereo not drawn) [CPD-408, 2-((1-(6-(6-((6-acetyl-8-cyclopentyl-5-methyl-7-oxo-7,8-dihydropyrido[2,3-d]pyrimidin-2-yl)amino)pyridin-3-yl)-6-azaspiro[2.5]octane-1-carbonyl)piperidin-4-yl)amino)-N-(1,5-dimethyl-1H-pyrazol-3-yl)-6-(isopropylamino)nicotinamide]: < 50 nM.
The same measure for `CC(=O)c1c(C)c2cnc(Nc3ccc(N4CCC5(CC4)CC5C(=O)N4CCC(Nc5nc(NC(C)C)ccc5C(=O)Nc5cn(C)c(C6CC6)n5)CC4)cn3)nc2n(C2CCCC2)c1=O` (stereo not drawn) [CPD-409, 2-((1-(6-(6-((6-acetyl-8-cyclopentyl-5-methyl-7-oxo-7,8-dihydropyrido[2,3-d]pyrimidin-2-yl)amino)pyridin-3-yl)-6-azaspiro[2.5]octane-1-carbonyl)piperidin-4-yl)amino)-N-(2-cyclopropyl-1-menthyl-1H-imidazol-4-yl)-6-(isopropylamino)nicotinamide]: < 50 nM.

Usually IC50 stands for the midpoint of a concentration-inhibition curve.
